From EP2524918A1, “Imidazopyrazines derivates as kinase inhibitors” (Centro Nacional de Investigaciones Oncológicas (CNIO), priority 2011, dated 2012)

How the values were obtained:
A549 = experiment: Antiproliferation MTT assay, A549; assay type: cell-based; conditions: Homo sapiens, A549, Lung Cancer
Experimental: (§1) Cells were seeded at 10000-50000 cells/well in 96 plates for 16 h. On day two, nine serial 1:3 compound dilutions were made in DMSO in a 96 well plate. The compounds were added to duplicate wells in 96-well cell plates a using a FX BECKMAN robot (Beckman Coulter) and incubated at 37°C with CO2 atmosphere. After 3 days, relative numbers of viable cells were measured by MTT (Sigma) according to manufacturer's instruction and read on EndVision (Perkin Elmer). EC50 values were calculated using ActivityBase from IDBS. Drugs in combination assays were dosed starting at 4 x EC50 concentrations and continuing with serial dilutions 1:2. PI3K inhibitors and chemotherapeutic agents were added simultaneously.
(§2) An additional exemplary in vitro cell proliferation assay includes the following steps: • 1. An aliquot of 200 µl of cell culture containing optimal density (between 10^4 - 5x10^4 cells) (see Examples for cell lines and tumour type) in medium was deposited in each well of a 96-well flat bottom plates. • 2. Control wells were prepared containing medium without cells • 3. The compound was added to the experimental wells and incubated for 3 days. • 4. One quarter volume of MTT reagent with respect to the volume of cell culture medium present in each well was added and incubated 24h at 37°C with 5% CO2. • 5. One quarter volume of solubilisation buffer with respect to the volume of cell culture medium present in each well was added and incubated 24h at 37°C with 5% CO2. • 6. Formazan salt formed was recorded and reported in graphs as relative growth vs. cells treated only with dmso.

Raji = experiment: Antiproliferation MTT assay, Raji; assay type: cell-based; conditions: Homo sapiens, Burkitt Lymphoma
Experimental: as §1, §2

MV4:11 = experiment: Antiproliferation assay, MV4:11; assay type: cell-based; conditions: Homo sapiens, AML, read-out: MMP MV4:11 IC50
Experimental: as §1, §2

U2OS = experiment: Antiproliferation MTT assay, U2OS; assay type: cell-based; conditions: Homo sapiens, Osteosar coma
Experimental: as §1, §2

HCT 116p53 ++ = experiment: Antiproliferation MTT assay, HCT 116; assay type: cell-based; conditions: Homo sapiens, HCT-116, Colon Cancer
Experimental: as §1, §2

SKMel29 = experiment: Antiproliferation MTT assay, SKMel29; assay type: cell-based; conditions: Melanoma
Experimental: as §1, §2

HDAC = HDAC enzymatic activity (HDAC-Glo I/II Screening System, HeLa cell nuclear extracts); assay type: biochemical; conditions: HeLa cell nuclear extract, 25°C for 30 minutes
Experimental: HDAC inhibitory activity was evaluated using the HDAC-Glo™ I/II Screening System from Promega (G6430) using manufacturing recommendations. The system emploies HeLa cell nuclear extracts as a source of HDAC activities. The assay uses an acetylated, live-cell-permeant, luminogenic peptide substrate that can be deacetylated by HDAC activities. Substrate deacetylation is measured by a coupled protease reaction that cleaves the peptide from aminoluciferin, which is quantified in a reaction using recombinant Ultra-Glo™ firefly luciferase. Test compounds were serially diluted in dimethylsulphoside (DMSO) and added to HeLa cell nuclear extract in the presence of the acetylated luminogenic peptide substrate and developer reagent. Reactions were incubated at 25°C for 30 minutes and luminescence was measured in the EnVision plate reader (Perkin Elmer). Data were analyzed using GraphPad Prism (v5.03) with a sigmoidal dose-response curve fitting for IC50 calculation.

COLO206 = experiment: Antiproliferation MTT assay, COLO206; assay type: cell-based; conditions: Colon Cancer
Experimental: as §1, §2

PC3 = experiment: Antiproliferation MTT assay, PC3; assay type: cell-based; conditions: Homo sapiens, PC-3; Prostate
Experimental: as §1
(§3) An additional exemplary in vitro cell proliferation assay includes the following steps: • 1. An aliquot of 200 µl of cell culture containing optimal density (between 10^4 - 5x10^4 cells) (see Examples for cell lines and tumour type) in medium was deposited in each well of a 96-well flat bottom plates. • 2. Control wells were prepared containing medium without cells • 3. The compound was added to the experimental wells and incubated for 3 days. • 4. […] Formazan salt formed was recorded and reported in graphs as relative growth vs. cells treated only with dmso.

SKMEL19 = experiment: Antiproliferation MTT assay, SKMEL19; assay type: cell-based; conditions: Homo sapiens, SK-MEL19, Melanoma
Experimental: as §1, §2

MDAMB 231 = experiment: Antiproliferation MTT assay, MDAMB 231; assay type: cell-based; conditions: Homo sapiens, MDA-MB-231; Breast cancer
Experimental: as §1, §2

[1] = tested on: phospho-Akt1 (Ser473) protein; experiment: PI3K cellular activity (Elisa assay), AKT phosphorylation in SKMEL cells; assay type: cell-based; conditions: inhibition of phosphorylation of AKT, read-out: AKT_P_SKMEL_ELISA_EC50
Miapaca = experiment: Antiproliferation MTT assay, Miapaca; assay type: cell-based; conditions: Homo sapiens, MIA PaCa-2; Pancreas
Experimental: as §1, §2

BT474 = experiment: Antiproliferation MTT assay, BT474; assay type: cell-based; conditions: Homo sapiens, BT-474; Breast cancer
Experimental: as §1, §2

HT39 = experiment: Antiproliferation MTT assay, HT39; assay type: cell-based; conditions: Colon Cancer
Experimental: as §1, §2

PI3K (p110α/p85α) = target: T1, PI3K (p110α/p85α (Homo sapiens, UniProt P42336)); experiment: PI3K activity assay (ADP Hunter Plus); assay type: biochemical; conditions: 50 µM ATP, 30 µM PIP2, 1 hour at 25°C; read-out: PI3Kα IC50
T1 construct: purchased Carna Biosciences #07CBS-0402A
T1 sequence (P42336 whole entry): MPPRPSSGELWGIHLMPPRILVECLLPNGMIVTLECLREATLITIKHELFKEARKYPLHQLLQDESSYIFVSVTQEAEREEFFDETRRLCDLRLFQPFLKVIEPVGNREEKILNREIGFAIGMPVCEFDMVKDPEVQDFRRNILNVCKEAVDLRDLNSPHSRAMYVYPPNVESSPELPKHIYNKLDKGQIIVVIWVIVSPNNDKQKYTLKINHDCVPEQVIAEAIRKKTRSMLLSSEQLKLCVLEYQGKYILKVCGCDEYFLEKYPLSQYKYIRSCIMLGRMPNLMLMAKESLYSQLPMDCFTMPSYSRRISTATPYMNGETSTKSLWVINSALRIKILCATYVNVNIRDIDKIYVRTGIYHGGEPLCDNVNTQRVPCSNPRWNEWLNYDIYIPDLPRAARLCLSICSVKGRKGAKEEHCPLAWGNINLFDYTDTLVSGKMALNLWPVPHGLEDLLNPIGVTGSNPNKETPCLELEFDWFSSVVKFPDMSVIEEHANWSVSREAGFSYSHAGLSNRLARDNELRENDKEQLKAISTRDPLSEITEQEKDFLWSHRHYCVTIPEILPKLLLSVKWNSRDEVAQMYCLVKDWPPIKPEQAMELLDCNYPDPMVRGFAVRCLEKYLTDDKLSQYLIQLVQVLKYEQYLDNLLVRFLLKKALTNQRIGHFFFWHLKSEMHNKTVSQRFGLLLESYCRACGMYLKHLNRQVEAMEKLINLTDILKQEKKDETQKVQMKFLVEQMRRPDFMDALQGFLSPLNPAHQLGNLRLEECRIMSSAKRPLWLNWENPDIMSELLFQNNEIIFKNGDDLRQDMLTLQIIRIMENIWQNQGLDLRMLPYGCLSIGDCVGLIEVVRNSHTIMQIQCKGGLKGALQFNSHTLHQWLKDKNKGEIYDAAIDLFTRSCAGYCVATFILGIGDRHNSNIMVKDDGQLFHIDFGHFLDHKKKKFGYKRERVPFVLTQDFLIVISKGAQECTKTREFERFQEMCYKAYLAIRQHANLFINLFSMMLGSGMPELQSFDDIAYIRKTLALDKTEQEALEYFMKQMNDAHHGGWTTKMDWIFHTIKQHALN
T1 sequence (P27986 whole entry partner): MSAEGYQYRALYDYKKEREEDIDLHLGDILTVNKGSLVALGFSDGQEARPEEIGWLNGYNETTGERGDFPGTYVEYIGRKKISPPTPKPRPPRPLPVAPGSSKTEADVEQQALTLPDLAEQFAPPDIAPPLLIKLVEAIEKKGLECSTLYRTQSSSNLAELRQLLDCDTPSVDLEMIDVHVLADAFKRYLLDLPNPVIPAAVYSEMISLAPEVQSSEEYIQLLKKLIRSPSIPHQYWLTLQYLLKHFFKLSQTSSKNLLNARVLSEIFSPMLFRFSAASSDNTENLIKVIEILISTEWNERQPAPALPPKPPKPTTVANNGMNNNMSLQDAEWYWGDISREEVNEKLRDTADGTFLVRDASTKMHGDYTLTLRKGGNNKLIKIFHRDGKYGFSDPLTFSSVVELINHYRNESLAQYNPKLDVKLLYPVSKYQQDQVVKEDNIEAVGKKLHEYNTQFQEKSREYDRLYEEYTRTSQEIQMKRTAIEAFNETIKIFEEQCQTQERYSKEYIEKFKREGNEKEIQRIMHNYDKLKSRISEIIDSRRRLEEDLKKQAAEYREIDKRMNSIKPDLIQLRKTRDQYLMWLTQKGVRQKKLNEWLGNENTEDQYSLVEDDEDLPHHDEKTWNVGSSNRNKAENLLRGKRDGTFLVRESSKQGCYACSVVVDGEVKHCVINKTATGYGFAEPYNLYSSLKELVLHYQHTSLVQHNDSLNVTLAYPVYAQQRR
Experimental: The kinase activity was measured by using the commercial ADP Hunter™ Plus assay available from DiscoveRx (#33-016), which is a homogeneous assay to measure the accumulation of ADP, a universal product of kinase activity. […] Reaction was carried out for 1 hour at 25°C. Reagent A and B were sequentially added to the wells and plates were incubated for 30 min at 37 °C. Fluorescence counts were read in a Victor instrument (Perkin Elmer) with the recommended settings (544 and 580 nm as excitation and emission wavelengths, respectively). Values were normalized against the control activity included for each enzyme (i.e., 100 % PI3 kinase activity, without compound). These values were plot against the inhibitor concentration and were fit to a sigmoid dose-response curve by using the Graphad software.

NCI H23 = experiment: Antiproliferation MTT assay, NCI H23; assay type: cell-based; conditions: Homo sapiens, Lung Cancer
Experimental: as §1, §2

NCI H1975 = experiment: Antiproliferation MTT assay, NCI H1975; assay type: cell-based; conditions: Homo sapiens, Lung Cancer
Experimental: as §1, §2

[2] = tested on: phospho-Akt1 (Ser473) protein; experiment: PI3K cellular activity (Elisa assay), AKT phosphorylation in U2OS cells; assay type: cell-based; conditions: Homo sapiens, U20S cells, inhibition of phosphorylation of AKT, 3h treatment, read-out: AKT_P_U20S_ELISA_EC50
Experimental: Activity is measured as endogenous levels of phospho-Akt1 (Ser473) protein. Osteosarcoma U2OS cells are plated in 96 Poly-D-Lysine coating tissue culture plates (18.000 cells/well). After the treatment with serial dilutions of the compound during 3h, the cells are fixed directly in the wells with 4% paraformaldehyde.
After fixing, individual wells go through the same series of steps used for a conventional immunoblot: including blocking with 5% BSA, incubation with 1/1000 of primary antibody-AKT ([…]) in PBS containing 5% BSA at 4°C overnight (Cell Signalling), washing and incubation with second antibody HRP-anti-mouse IgG for 1 h at RT (Amersham). After the addition of SuperSignal ELISA Femto maximum sensitivity chemiluminescent substrate (Pierce) the results are read using a luminescence plate reader (Victor).

MCF7 = experiment: Antiproliferation MTT assay, MCF7; assay type: cell-based; conditions: Homo sapiens, Breast cancer
Experimental: as §1, §3

SW620 = experiment: Antiproliferation MTT assay, SW620; assay type: cell-based; conditions: Homo sapiens, SW-620; Colon Cancer
Experimental: as §1, §3

NCI H460 = experiment: Antiproliferation MTT assay, NCI H460; assay type: cell-based; conditions: Homo sapiens, Lung Cancer
Experimental: as §1, §3

[3] = first of two columns with the same head (c1)
[4] = first of two columns with the same head (c3)
[5] = second of two columns with the same head (c2)

Row | IC50 (A549; [3]) [nM] | IC50 (Raji) [nM] | IC50 (MV4:11) [nM] | IC50 (U2OS) [nM] | IC50 (HCT 116p53 ++) [nM] | IC50 (HCT 116p53 ++; [4]) [nM] | IC50 (SKMel29) [nM] | IC50 (HDAC) [nM] | IC50 (COLO206) [nM] | IC50 (PC3) [µM] | IC50 (SKMEL19; [3]) [nM] | IC50 (SKMEL19; [5]) [nM] | IC50 (MDAMB 231) [nM] | EC50 [1] [nM] | IC50 (Miapaca) [nM] | IC50 (BT474) [nM] | IC50 (PI3K (p110α/p85α)) [nM] | SMILES | IC50 (HT39) [nM] | IC50 (NCI H23) [nM] | IC50 (NCI H1975) [nM] | further results
1 | 50800 | 2750 | 1150 | 5360 | 7770 | 6710 | 1330 | 21.1 | 5940 | 5.76 | 3300 | 2300 | 5730 | 330 | 4320 | 500 | 5.7 | Nc1ncc(-c2cn3cc(CNc4ncc(C(=O)NO)cn4)nc3c(N3CCOCC3)n2)cn1 [Final Compound 1] | 34600 | 77900 | 14400 | –
2 | 3530 | 280 | 340 | 2110 | 670 | 1160 | 16 | 9 | 560 | 1.17 | 370 | 70 | 560 | 70 | 630 | 94 | 3.2 | Nc1ncc(-c2cn3cc(CN4CCN(c5ncc(C(=O)NO)cn5)CC4)nc3c(N3CCOCC3)n2)cn1 [Final Compound 2] | 1210 | 2150 | 1050 | IC50 (A549; [5]): 1320 nM; EC50 [2]: 1360 nM; IC50 (MCF7): 540 nM; IC50 (SW620): 1340 nM; IC50 (NCI H460): 2390 nM
3 | 1080 | 51 | 40 | 250 | 240 | 410 | 16 | 10.6 | 150 | – | 100 | 43 | 180 | 1940 | 150 | 19 | 7.5 | CN(Cc1cn2cc(-c3cnc(N)nc3)nc(N3CCOCC3)c2n1)c1ncc(C(=O)NO)cn1 [Final Compound 3] | 580 | 2040 | 240 | IC50 (A549; [5]): 990 nM; EC50 [2]: 26 nM; IC50 (MCF7): 120 nM; IC50 (SW620): 400 nM; IC50 (NCI H460): 1690 nM
